# Laboratory results: patent US7772180B2, “Hepatitis C virus inhibitors” (Bristol-Myers Squibb Company, priority 2006, dated 2010)
# Where two headings read alike, the source gives them in different places.
# Legend:
# [1] = target: T1, HCV NS3/4A protease complex, BMS strain (UniProt P27958, species not given/STRAIN_BMS); experiment: FRET peptide assay to monitor HCV NS3/4A proteolytic activity (BMS strain); format: biochemical, Hepatitis C virus (genotype 1a)
# T1 construct: other: NS3/4A BMS strain; activity range class; numeric values, unit not given; said of H77 and J4L6S; fused on or other part: A three-lysine solubilising tail at the C-terminus of NS4A; A His tag is implied by the pET21b vector and Ni-NTA purification; Both are printed for the H77 and J4L6S constructs and apply to BMS by inference
# Source text: HCV NS3 protease complexes, derived from the BMS strain, H77 strain or J4L6S strain, were generated, as described below. These purified recombinant proteins were generated for use in a homogeneous assay (see below) to provide an indication of how effective compounds of the present disclosure would be in inhibiting HCV NS3 proteolytic activity.
# Serum from an HCV-infected patient was obtained from Dr. T. Wright, San Francisco Hospital. An engineered full-length cDNA (compliment deoxyribonucleic acid) template of the HCV genome (BMS strain) was constructed from DNA fragments obtained by reverse transcription-PCR (RT-PCR) of serum RNA (ribonucleic acid) and using primers selected on the basis of homology between other genotype 1a strains. From the determination of the entire genome sequence, a genotype 1a was assigned to the HCV isolate according to the classification of Simmonds et al. (See P Simmonds, K A Rose, S Graham, S W Chan, F McOmish, B C Dow, E A Follett, P L Yap and H Marsden, J. Clin. Microbiol., 31(6), 1493-1503 (1993)). […] The infectious clones, H77 (1a genotype) and J4L6S (1b genotype) were obtained from R. Purcell (NIH) and the sequences are published in Genbank (AAB67036, see Yanagi, M., Purcell, R. H., Emerson, S. U. and Bukh, J. Proc. Natl. Acad. Sci. U.S.A. 94(16), 8738-8743 (1997); AF054247, see Yanagi, M., St Claire, M., Shapiro, M., Emerson, S. U., Purcell, R. H. and Bukh, J. Virology 244 (1), 161-172. (1998)).
# NS3/4A protease complex-containing fractions were pooled and loaded on a desalting column Superdex-S200 pre-equilibrated with buffer D (25 mM HEPES, pH 7.5, 20% glycerol, 300 mM NaCl, 0.2% Triton X-100, 10 mM βME). Sample was loaded at a flow rate of 1 mL/min. NS3/4A protease complex-containing fractions were pooled and concentrated to approximately 0.5 mg/ml. The purity of the NS3/4A protease complexes, derived from the BMS, H77 and J4L6S strains, were judged to be greater than 90% by SDS-PAGE and mass spectrometry analyses. The enzyme was stored at −80° C., thawed on ice and diluted prior to use in assay buffer.
# The purpose of this in vitro assay was to measure the inhibition of HCV NS3 protease complexes, derived from the BMS strain, H77 strain or J4L6S strain, as described above, by compounds of the present disclosure. This assay provides an indication of how effective compounds of the present disclosure would be in inhibiting HCV NS3 proteolytic activity.
# In order to monitor HCV NS3/4A protease activity, an NS3/4A peptide substrate was used. The substrate was RET S1 (Resonance Energy Transfer Depsipeptide Substrate; AnaSpec, Inc. cat #22991) (FRET peptide), described by Taliani et al. in Anal. Biochem. 240(2):60-67 (1996). The sequence of this peptide is loosely based on the NS4A/NS4B natural cleavage site for the HCV NS3 protease except there is an ester linkage rather than an amide bond at the cleavage site. The peptide also contains a fluorescence donor, EDANS, near one end of the peptide and an acceptor, DABCYL, near the other end. The fluorescence of the peptide is quenched by […] resonance energy transfer (RET) between the donor and the acceptor, but as the NS3 protease cleaves the peptide the products are released from RET quenching and the fluorescence of the donor becomes apparent.
# The peptide substrate was incubated with one of the three recombinant NS3/4A protease complexes, in the absence or presence of a compound of the present disclosure. The inhibitory effects of a compound were determined by monitoring the formation of fluorescent reaction product in real time using a Cytofluor Series 4000.
# Assay buffer: 50 mM HEPES, pH 7.5; 0.15 M NaCl; 0.1% Triton; 15% Glycerol; 10 mM βME. Substrate: 2 μM final concentration (from a 2 mM stock solution in DMSO stored at −20° C.). HCV NS3/4A protease type 1a (1b), 2-3 nM final concentration (from a 5 μM stock solution in 25 mM HEPES, pH 7.5, 20% glycerol, 300 mM NaCl, 0.2% Triton-X100, 10 mM βME). […]
# [2] = test system: HCV replicon (strain 1b) in HUH-7 cells; experiment: HCV replicon FRET assay; format: cell-based, Hepatitis C virus; conditions: activity range class
# Source text: An HCV replicon whole cell system was established as described by Lohmann V, Korner F, Koch J, Herian U, Theilmann L, Bartenschlager R., Science 285(5424): 110-3 (1999). This system enabled us to evaluate the effects of our HCV Protease compounds on HCV RNA replication. Briefly, using the HCV strain 1b sequence described in the Lohmann paper (Assession number: AJ238799), an HCV cDNA was synthesized by Operon Technologies, Inc. (Alameda, Calif.), and the full-length replicon was then assembled in plasmid pGem9zf(+) (Promega, Madison, Wis.) using standard molecular biology techniques. The replicon consists of (i) the HCV 5′ UTR fused to the first 12 amino acids of the capsid protein, (ii) the neomycin phosphotransferase gene (neo), (iii) the IRES from encephalomyocarditis virus (EMCV), and (iv) HCV NS3 to NS5B genes and the HCV 3′ UTR. Plasmid DNAs were linearized with ScaI and RNA transcripts were synthesized in vitro using the T7 MegaScript transcription kit (Ambion, Austin, Tex.) according to manufacturer's directions. In vitro transcripts of the cDNA were transfected into the human hepatoma cell line, HUH-7. […] Resulting cell lines were characterized for positive and negative strand RNA production and protein production over time.
# The HCV replicon FRET assay was developed to monitor the inhibitory effects of compounds described in the disclosure on HCV viral replication. HUH-7 cells, constitutively expressing the HCV replicon, were grown in Dulbecco's Modified Eagle Media (DMEM) (Gibco-BRL) containing 10% Fetal calf serum (FCS) (Sigma) and 1 mg/ml G418 (Gibco-BRL). Cells were seeded the night before (1.5×10^4 cells/well) in 96-well tissue-culture sterile plates. Compound and no compound controls were prepared in DMEM containing 4% FCS, 1:100 Penicillin/Streptomysin (Gibco-BRL), 1:100 L-glutamine and 5% DMSO in the dilution plate (0.5% DMSO final concentration in the assay). Compound/DMSO mixes were added to the cells and incubated for 4 days at 37° C. After 4 days, cells were first assessed for cytotoxicity using alamar Blue (Trek Diagnotstic Systems) for a CC50 reading. The toxicity of compound (CC50) was determined by adding 1/10th volume of alamarBlue to the media incubating the cells. After 4 hours, the fluorescence signal from each well was read, with an excitation wavelength at 530 nm and an emission wavelength of 580 nm, using the Cytofluor Series 4000 (Perspective Biosystems). Plates were then rinsed thoroughly with Phosphate-Buffered Saline (PBS) (3 times 150 μl).
# [3] = read-out: HCV Protease (IC50); NS3/4A BMS strain; activity range class
# [4] = Hepatitis C virus, Huh-7, read-out: HCV Pro Replicon (EC50), HCV replicon cell assay
# T1 sequence (P27958 1027-1657, change not shown, one chain of several): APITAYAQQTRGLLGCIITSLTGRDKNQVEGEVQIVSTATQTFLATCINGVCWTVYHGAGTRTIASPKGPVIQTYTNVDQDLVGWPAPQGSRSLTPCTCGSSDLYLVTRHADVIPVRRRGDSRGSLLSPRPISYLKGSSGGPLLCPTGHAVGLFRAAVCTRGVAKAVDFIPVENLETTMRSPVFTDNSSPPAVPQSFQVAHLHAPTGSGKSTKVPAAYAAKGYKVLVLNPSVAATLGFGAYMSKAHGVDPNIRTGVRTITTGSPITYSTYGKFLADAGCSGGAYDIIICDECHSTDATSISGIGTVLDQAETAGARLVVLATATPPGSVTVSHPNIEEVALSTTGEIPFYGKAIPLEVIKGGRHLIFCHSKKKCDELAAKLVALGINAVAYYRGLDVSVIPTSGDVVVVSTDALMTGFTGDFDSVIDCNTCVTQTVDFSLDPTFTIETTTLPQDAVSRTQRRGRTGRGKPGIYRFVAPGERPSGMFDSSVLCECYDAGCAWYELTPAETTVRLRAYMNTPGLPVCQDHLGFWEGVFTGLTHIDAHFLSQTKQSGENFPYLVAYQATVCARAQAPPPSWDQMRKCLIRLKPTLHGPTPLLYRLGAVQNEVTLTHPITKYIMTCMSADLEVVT
SMILES,"IC50 [1, 3]",other results
C=C[C@@H]1C[C@]1(NC(=O)[C@@H]1C[C@@H](Oc2ncc(OC)c3ccc(Cl)cc23)CN1C(=O)C(CC)Nc1nsnc1OC)C(=O)CS(=O)(=O)C1CC1 (stereo partly shown) [Compound 241],> 200 nM,"EC50 [2, 4]: > 1000 nM"
C=C[C@@H]1C[C@]1(NC(=O)[C@@H]1C[C@@H](Oc2ncc(OC)c3ccc(Cl)cc23)CN1C(=O)C(C)Nc1n[s+]([O-])nc1OC)C(=O)NS(=O)(=O)C1CC1 (stereo partly shown) [Compound 236],> 200 nM,"EC50 [2, 4]: > 1000 nM"
"C=C[C@@H]1C[C@]1(NC(=O)[C@@H]1C[C@@H](Oc2ncc(OC)c3ccc(Cl)cc23)CN1C(=O)[C@H](Nc1cccc(C(=O)NC(C)(C)c2ccccc2)c1)C(C)(C)C)C(=O)NS(=O)(=O)C1CC1 (single isomer, unassigned; isomer 3) [216 second isomer]",–,IC50 ([1]; NS3/4A BMS strain; activity range class; read-out: HCV Protease (IC50)): > 200 nM
"C=C[C@@H]1C[C@]1(NC(=O)[C@@H]1C[C@@H](Oc2ncc(OC)c3ccc(Cl)cc23)CN1C(=O)[C@H](Nc1ccc(S(=O)(=O)NC(C)(C)C)cc1)C(C)(C)C)C(=O)NS(=O)(=O)C1CC1 [214 second isomer, N-(4-(tert-butylsulfamoyl)phenyl)-3-methyl-D-valyl-(4R)-4-((7-chloro-4-methoxy-1-isoquinolinyl)oxy)-N-((1R,2S)-1-((cyclopropylsulfonyl)carbamoyl)-2-vinylcyclopropyl)-L-prolinamide]",> 200 nM,–
"C=C[C@@H]1C[C@]1(NC(=O)[C@@H]1C[C@@H](Oc2nc3c(c4cc(OC)ccc24)OCCN3C)CN1C(=O)[C@@H](Nc1ccc(F)c(F)c1)C(C)(C)C)C(=O)NS(=O)(=O)C1CC1 [235 first isomer, N-(3,4-difluorophenyl)-3-methyl-L-valyl-(4R)—N-((1R,2S)-1-((cyclopropylsulfonyl)carbamoyl)-2-vinylcyclopropyl)-4-((9-methoxy-4-methyl-3,4-dihydro-2H-[1,4]oxazino[3,2-c]isoquinolin-6-yl)oxy)-L-prolinamide]",> 200 nM,–
"C=C[C@@H]1C[C@]1(NC(=O)[C@@H]1C[C@@H](Oc2ncc(OC)c3ccc(Cl)cc23)CN1C(=O)[C@H](Nc1cccc(C(=O)NC(C)(C)C)c1)C(C)(C)C)C(=O)NS(=O)(=O)C1CC1 [212 second isomer, N-(3-(tert-butylcarbamoyl)phenyl)-3-methyl-D-valyl-(4R)-4-((7-chloro-4-methoxy-1-isoquinolinyl)oxy)-N-((1R,2S)-1-((cyclopropylsulfonyl)carbamoyl)-2-vinylcyclopropyl)-L-prolinamide]",0.6 to 20 nM,"EC50 [2, 4]: 3 to 100 nM"
"C=C[C@@H]1C[C@]1(NC(=O)[C@@H]1C[C@@H](Oc2nc(OC)cc3cc(OC)ccc23)CN1C(=O)C(Nc1ccccc1)C(C)(C)C)C(=O)NS(=O)(=O)C1CC1 (single isomer, unassigned) [20 first isomer]",0.6 to 20 nM,"EC50 ([2]; read-out: HCV Pro Replicon (EC50), HCV replicon cell assay): 3 to 100 nM"
"C=C[C@@H]1C[C@]1(NC(=O)[C@@H]1C[C@@H](Oc2ncc(OC)c3ccc(Cl)cc23)CN1C(=O)C(Nc1ccc(OC(F)F)nc1)C(C)(C)C)C(=O)NS(=O)(=O)C1CC1 (single isomer, unassigned) [409 - second isomer]",> 200 nM,–
"C=C[C@@H]1C[C@]1(NC(=O)[C@@H]1C[C@@H](Oc2ncc(OC)c3ccc(Cl)cc23)CN1C(=O)[C@H](Nc1cccc(F)c1F)C(C)(C)C)C(=O)NS(=O)(=O)C1CC1 [208 second isomer, N-(2,3-difluorophenyl)-3-methyl-D-valyl-(4R)-4-((7-chloro-4-methoxy-1-isoquinolinyl)oxy)-N-((1R,2S)-1-((cyclopropylsulfonyl)carbamoyl)-2-vinylcyclopropyl)-L-prolinamide]",> 200 nM,–
"C=C[C@@H]1C[C@]1(NC(=O)[C@@H]1C[C@@H](Oc2ncc(OC)c3ccc(Cl)cc23)CN1C(=O)[C@H](Nc1cccc(C(N)=O)c1)C(C)(C)C)C(=O)NS(=O)(=O)C1CC1 [217 second isomer, N-(3-carbamoylphenyl)-3-methyl-D-valyl-(4R)-4-((7-chloro-4-methoxy-1-isoquinolinyl)oxy)-N-((1R,2S)-1-((cyclopropylsulfonyl)carbamoyl)-2-vinylcyclopropyl)-L-prolinamide]",> 200 nM,–
"C=C[C@@H]1C[C@]1(NC(=O)[C@@H]1C[C@@H](Oc2ncc(OC)c3ccc(Cl)cc23)CN1C(=O)[C@H](Nc1ccc(C(N)=O)cc1)C(C)(C)C)C(=O)NS(=O)(=O)C1CC1 [226 second isomer, N-(4-carbamoylphenyl)-3-methyl-D-valyl-(4R)-4-((7-chloro-4-methoxy-1-isoquinolinyl)oxy)-N-((1R,2S)-1-((cyclopropylsulfonyl)carbamoyl)-2-vinylcyclopropyl)-L-prolinamide]",> 200 nM,–
"C=C[C@@H]1C[C@]1(NC(=O)[C@@H]1C[C@@H](Oc2ncc(OC)c3ccc(Cl)cc23)CN1C(=O)C(Nc1ccc(OC(F)F)nc1)C(C)(C)C)C(=O)NS(=O)(=O)C1CC1 (single isomer, unassigned) [409 - first isomer]",20 to 200 nM,–
